21 compounds from PubChem BioAssay (NCI) can be followed below.

Common to all, as to assay: NCI anticancer screen, dose series, 48 h
Assay [1] relates to HCC-2998 colon.
The test system of assay [2] is SF-539 CNS.
Assay [3] relates to OVCAR-8 ovarian.
In assay [4] the test system is MDA-MB-435.
In assay [5] the test system is MALME-3M melanoma.
Assay [6] concerns OVCAR-5 ovarian.
The subject of assay [7] is EKVX NSCLC.
Assay [8] deals with HOP-92 NSCLC.
Assay [9] relates to K-562 leukemia.
Assay [10] concerns OVCAR-4 ovarian.

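1) Cells in 96-well plates. 2) Compound, 48 h, 5 concentrations. 3) Linear interpolation between surrounding doses. 4) Unreached endpoint = highest concentration. At the GI50, growth is halved. TGI marks complete inhibition of growth.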 A value given as a limit tells only on which side of the number the result lay.

For `CC1CC(O)C(=O)C(O[C@@H]2C[C@@H]3CC[C@@H]4[C@H](CC[C@]5(C)C(C6=CC(=O)OC6)CC[C@]45O)[C@@]3(C=O)C[C@H]2O)O1` (stereo partly drawn), the TGI in assay [1] is 0.243 µM; in assay [2] it was 0.0586 µM; in assay [3], 0.163 µM; in [4] it was 0.177 µM; in assay [5], 0.0708 µM; in [6] it was 0.283 µM. This compound also returned a TGI in assay [7] of 0.0542 µM.

Turning to `COC(=O)c1cc2c(o1)-c1nccc3c1c(nc1ccccc13)C2=O`, the GI50 was 1.96 µM in assay [8]; 2.69 µM in assay [2]; 2.1 µM in [3]; 0.538 µM in assay [4]; 1.89 µM in [5]; 17.3 µM in [6]. Also, the GI50 in [7] is 14.9 µM. In addition, the TGI in assay [8] came to 17.7 µM; in assay [2], 9.7 µM; in assay [3] it was 6.38 µM; in assay [4], 1.81 µM; in assay [5], 5.96 µM; in assay [6] it was 34.3 µM. For the same compound, in [7], the TGI stood at 35 µM.

For the compound `Cc1cc(N/N=C/c2ccccn2)nc2ccccc12`, the GI50 in assay [1] was 0.462 µM; in assay [2], 0.289 µM; in assay [9], 0.422 µM; in [3], 0.381 µM; in [4], 0.679 µM; in assay [10], 0.166 µM. Moreover, the GI50 in assay [5] is 0.842 µM; in assay [6] it was 0.542 µM. Also, the TGI in [1] turned out to be 16.1 µM; in [2] it was 1.04 µM; in [9], 7.55 µM; in [3] it was 16.6 µM; in [4], 15.9 µM; in [10] it was 7.2 µM. For the same compound, the TGI in assay [5] stood at 10.2 µM; in assay [6], 18.5 µM.

As to `Cn1c(=O)c2c(nc(C(=N)SCC(=O)O)n2C)n(C)c1=O`, the TGI in [8] was above 100 µM; in assay [2] it was above 100 µM; in assay [9], above 100 µM; in assay [3], above 100 µM; in assay [4] it was above 100 µM; in [10] it was 85.6 µM. The TGI in [5], in assay [6] and in assay [7] was above 100 µM each time.

For the compound `ClCCN(CCCl)c1ccc(CNc2ccccc2)cc1`, the GI50 in [2] was 3.21 µM; in assay [9], 8.66 µM; in [3], 6.34 µM; in [4] it was 12 µM; in assay [10], 16.2 µM; in [5] it was 21.8 µM. Also, in [6], the GI50 was 25.8 µM. The TGI in assay [2] was 24.2 µM; in assay [9] it was above 100 µM; in [3], above 100 µM; in [4] it was above 100 µM; in assay [10], above 100 µM; in assay [5], 76.8 µM. In addition, the TGI in [6] is above 100 µM.

On to `CCC(C)(O)c1cnc(CC(C)C)c(=O)n1O` (stereo not drawn), for which the TGI was above 100 µM in assay [1]; above 100 µM in assay [8]; 47.8 µM in [9]; above 100 µM in assay [3]; above 100 µM in assay [4]; above 100 µM in assay [10]. In addition, the TGI in [6] was 25.8 µM; in [7], above 100 µM.

As to `Cc1cc(Nc2nc(-c3cn(-c4ccc(Cl)cc4)nn3)nc3ccccc23)n[nH]1`, the GI50 in assay [1] is 36.4 µM; in assay [8], 23.6 µM; in assay [2], 27.3 µM; in [9], 25.8 µM; in assay [3], 18.5 µM; in assay [4], 11.6 µM. For the same compound, the GI50 in assay [10] is 10.1 µM; in assay [5], 10.8 µM; in [6] it was above 50 µM. Moreover, the TGI in assay [1], in assay [8], in [2], in [9], in [3] and in [4] was above 50 µM each time. Besides, the TGI in assay [10] is above 50 µM; in assay [5] it was 30.1 µM; in assay [6], above 50 µM.

Take `CC1(C)CN=C(NN=C(/C=C/c2ccc(C(F)(F)F)cc2)/C=C/c2ccc(C(F)(F)F)cc2)NC1`: the GI50 in assay [1] was 1.41 µM; in [8], 1.1 µM; in assay [2], 1.85 µM; in assay [3], 1.67 µM; in [4], 1.59 µM; in assay [10], 1.29 µM. In addition, the GI50 in [5] is 1.86 µM; in assay [6] it was 1.32 µM. The TGI in assay [1] turned out to be 2.92 µM; in assay [8] it was 2.54 µM; in assay [2] it was 3.45 µM; in [3], 3.2 µM; in assay [4], 3 µM; in [10] it was 2.72 µM. Also, the TGI in [5] turned out to be 3.78 µM; in [6] it was 2.68 µM.

In the case of `N#CCCN1C/C(=C/c2ccc(Br)cc2)C(=O)/C(=C/c2ccc(Br)cc2)C1`, the GI50 in assay [1] was 1.85 µM; in assay [8], 1.71 µM; in [2] it was 1.61 µM; in [9], 0.454 µM; in [3], 1.14 µM; in assay [4] it was 2.24 µM. In addition, the GI50 in assay [10] is 2.69 µM; in assay [5], 2.23 µM; in assay [6], 1.92 µM. The TGI in [1] is 3.31 µM; in assay [8] it was 4.89 µM; in assay [2], 2.99 µM; in [9] it was above 100 µM; in assay [3] it was above 100 µM; in assay [4], 6.83 µM. Further, the TGI in [10] is above 100 µM; in assay [5], 5.29 µM; in [6] it was 3.97 µM.

Turning to `O=C(O)c1cccc(COc2ccc([N+](=O)[O-])cc2Cl)c1`, the GI50 in assay [1] was above 100 µM; in assay [8], 45.2 µM; in [9] it was 37.2 µM; in [3], 86.4 µM; in [4], above 100 µM; in assay [10] it was above 100 µM. Besides, the GI50 in assay [6] is above 100 µM; in [7] it was 0.549 µM. For the same compound, the TGI in assay [1], in [8], in assay [9], in assay [3], in [4] and in [10] was above 100 µM in each case. The TGI in [6] is above 100 µM; in [7] it was 4.87 µM.

`CC(C)(C)[Si](C)(C)OC1[C@@H](CNC(=O)NC(=O)CCl)O[C@@H](n2cnc3c(N)ncnc32)[C@H]1O[Si](C)(C)C(C)(C)C` (stereo partly drawn): the GI50 was 1.61 µM in [1]; 0.885 µM in assay [8]; 0.944 µM in assay [2]; 1.23 µM in assay [9]; 0.812 µM in [3]; 0.798 µM in assay [4]. The GI50 in [10] was 0.924 µM; in [5], 0.98 µM; in assay [6] it was 0.818 µM. The TGI in [1] was found to be 3.95 µM; in assay [8] it was 1.86 µM; in assay [2] it was 1.67 µM; in assay [9], 3.41 µM; in assay [3] it was 2.85 µM; in assay [4], 1.56 µM. The figures for the TGI in assay [10], in assay [5] and in assay [6] were 2.51 µM, 1.96 µM and 1.62 µM, respectively.

For the compound `O=C(c1ccco1)c1c(C(F)(F)F)n([O-])c2ccc(C(F)(F)F)cc2[n+]1=O`, the GI50 in assay [1] is 1.04 µM; in [8], 0.28 µM; in assay [2], 0.475 µM; in [9], 0.287 µM; in assay [3], 0.31 µM; in assay [4], 1.16 µM. Moreover, the GI50 was 0.595 µM in [5], 0.38 µM in [6] and 0.727 µM in [7]. The TGI was found to be 2.5 µM in [1]; 0.718 µM in [8]; 0.91 µM in assay [2]; 0.765 µM in assay [9]; 1.15 µM in assay [3]; 2.56 µM in [4]. Besides, the TGI in assay [5] was 1.47 µM; in assay [6], 1.38 µM; in assay [7] it was 2.07 µM.

`CC(C)c1[nH]nc2c1N=C(c1ccccc1Cl)c1cc([N+](=O)[O-])ccc1N2`: the GI50 in assay [1] was 6.91 µM; in assay [8] it was 4 µM; in assay [2], 7.27 µM; in assay [9], 1.98 µM; in assay [3], 9.1 µM; in [4] it was 0.87 µM. Further, the GI50 in assay [10] is 8.06 µM; in assay [5], above 16.2 µM; in [6] it was 12.2 µM. Moreover, the TGI in assay [1] was above 19.1 µM; in [8] it was 12.6 µM; in assay [2], above 22 µM; in assay [9], above 25 µM; in [3], above 25 µM; in [4], above 25 µM. Also, the TGI was above 24.2 µM in assay [10], above 25 µM in assay [5] and above 25 µM in [6].

As to `COc1ccc(-c2nc(-c3cc(OC)cc(OC)c3)[nH]c2-c2ccc(OC)cc2)cc1`, the GI50 was 5.96 µM in [1]; above 100 µM in [2]; 5.02 µM in assay [9]; 9.77 µM in [3]; 5.98 µM in [4]; 4.03 µM in assay [10]. The GI50 in assay [5] was 8.31 µM; in assay [6], above 100 µM. The TGI in assay [1], in [2], in assay [9], in assay [3], in assay [4] and in [10] was above 100 µM throughout. Also, the TGI in [5] and in assay [6] was above 100 µM throughout.

With `COC(c1ccc(C(C)(C)C)cc1)(c1ccc(C(C)(C)C)cc1)c1ccc(C(C)(C)C)cc1`, the TGI in assay [1], in [2], in [9], in assay [3], in assay [4] and in assay [10] was above 100 µM each time. Besides, the TGI in assay [5], in assay [6] and in assay [7] was above 100 µM each time.

Take `COC(=O)C1C(O)C(C(=O)OC)C(C)N(C)C1C` (stereo not drawn): the TGI in assay [8], in assay [2], in assay [9], in assay [3], in [4] and in assay [10] was above 100 µM in each case. The TGI in assay [6] and in assay [7] was above 100 µM each time.

In the case of `CN(C)CCNCCN`, the TGI in assay [8], in [2], in [9], in assay [3], in [4] and in assay [10] was above 100 µM throughout. Moreover, the TGI in assay [5], in assay [6] and in [7] was above 100 µM throughout.

Turning to `COc1cc(/C=C\c2cc(OC)c(OC)c(OC)c2)cc(N/C=C\C(=O)c2c[nH]c3ccccc23)c1OC`, the GI50 in assay [1] is 3.34 µM; in [8], 1.5 µM; in [2], 1.7 µM; in [9] it was 1.54 µM; in assay [3], 3.33 µM; in assay [4], 2.43 µM. Also, the GI50 in assay [5] is 1.27 µM; in assay [6] it was 2.45 µM. In addition, the TGI is 10.5 µM in assay [1]; 4.5 µM in [8]; 3.19 µM in assay [2]; above 100 µM in assay [9]; 13.3 µM in assay [3]; 8.04 µM in assay [4]. Besides, the TGI in assay [5] came out at 3.18 µM; in [6], 7.03 µM.

Consider `COC(=O)C(=O)C(C(C)=O)C(=O)NCc1ccc(OC)c(OC)c1` (stereo not drawn), for which the TGI in assay [1], in assay [8], in [2], in assay [9], in assay [3] and in [10] was above 100 µM throughout. Further, the TGI in assay [5], in assay [6] and in [7] was above 100 µM each time.

Regarding `COc1cc2c(/C=N\N=C(N)N)c[nH]c2cc1C`, the GI50 in assay [1] is 15.8 µM; in assay [9] it was 17.1 µM; in [3], 40.2 µM; in [4], 17 µM; in assay [6] it was 21.4 µM; in assay [7], 28.3 µM. The TGI in assay [1] is 29.2 µM; in assay [9], 30.8 µM; in assay [3], above 100 µM; in assay [4], 33.2 µM; in assay [6], 64 µM; in [7], 88.5 µM.

Turning to `O=C(CC(=O)C1CCOC1=O)C(=O)Nc1cccc(Cl)c1` (stereo not drawn), the TGI in assay [1], in assay [8], in assay [2], in assay [9], in [3] and in [10] was above 100 µM in each case. In addition, the TGI in assay [5], in assay [6] and in [7] was above 100 µM each time.
